Data as given in patent US20090317457A1, “ANTI-INFLAMMATORY AND WOUND HEALING EFFECTS OF LYMPHOID THYMOSIN B-4” (Yale University, priority 2002, published 2009).
Where “and” joins values, the source holds several entries; their conditions need not be identical. Equal entries are not always repeated.

Assays:
[1] = system: λ-carrageenan induced neutrophil mediated inflammation of the footpad; test: λ-carrageenan-induced footpad inflammation (footpad swelling); type: in vivo, BALB/c mice; settings: for Footpad Thickness (+/− SE): oxidised peptide
Method: Experimental groups of 8-10 female BALB/c mice, 8-10 weeks of age, were housed in temperature controlled rooms and given food and water ad libitum. Observations and measurements were made by an investigator blinded to the experimental group. λ-Carrageenan injection. After measuring the baseline thickness of the hind footpads with a spring-loaded engineer's micrometer, mice were injected subcutaneously in both hind paws with 340 μg of λ-carrageenan in 40 μl. 6 h., 24 h., and 48 h. after the injection of λ-carrageenan, footpads were re-measured and swelling calculated by subtracting the baseline from the experimental measurements. For each mouse, increases in right and left footpad thickness were averaged. Thymosin peptides were injected as previously described [reference 8]: (i) intraperitoneally with 100 μl of 3.50×10^−5 M peptide solution, 30 minutes before footpad injection; (ii) intradermally into the footpad with 40 μl of 8.75×10^−5 M peptide solution and λ-carrageenan at time 0, and (iii) intraperitoneally with 100 μl of 3.50×10^−5 M peptide solution, 6 h. after footpad injection. For each group, the mean increase in footpad thickness was calculated, and compared to other groups using a one-tailed Student's t-test. The experiment was repeated four times. Statistics. Groups were compared for differences in the meaning using a one-tailed Student's t test; p<0.05 was considered statistically significant.

[2] = system: DNFB-induced allergic contact dermatitis of ear skin; test: DNFB allergic contact dermatitis (ACD) ear swelling assay; type: in vivo, FVB mice; settings: for ear thickness: unit not given
Method: Experimental groups of 8-10 female FVB mice, 8-10 weeks of age, were housed in temperature controlled rooms and given food and water ad libitum. Observations and measurements were made by an investigator blinded to the experimental group. Mice were sensitized on day 0 by epicutaneous application to razor-shaved abdominal skin of 25 μl of 0.5% DNFB in a mixture of acetone:olive oil (4:1). Before the challenge with DNFB, mice were injected (i) intraperitoneally with 100 μl of 3.50×10^−5 M thymosin peptide solution (30 minutes before DNFB) and (ii) intradermally with 40 μl of 8.75×10^−5 M peptide solution in both ears (1 min prior to DNFB challenge). On day 5, after measuring baseline ear thickness with an engineer's micrometer, mice were challenged by applying 10 μl of 0.2% DNFB in acetone:olive oil to each side of each ear. Ears were re-measured 6 h., 24 h., and 48 h. after challenge, and data expressed as the response above baseline (i.e., ear thickness 24 h. after challenge minus ear thickness immediately prior to challenge)±1 standard error of the mean (S.E.). For each mouse, increases in right and left ear thickness were averaged. The experiment was repeated twice. Statistics. Groups were compared for differences in the meaning using a one-tailed Student's t test; p<0.05 was considered statistically significant.

[3] = system: TPA-induced irritant contact dermatitis of ear skin; test: TPA irritant contact dermatitis (ICD) ear swelling assay; type: in vivo, BALB/c and FVB mice; settings: for ear swelling: 6 h, unit not given; for TPA Ear Thickness (+/− SE): increase over baseline
Method: Experimental groups of 8-10 female BALB/c and FVB mice, 8-10 weeks of age, were housed in temperature controlled rooms and given food and water ad libitum. Observations and measurements were made by an investigator blinded to the experimental group.
After measuring the baseline ear thickness, naïve mice were injected intraperitoneally (IP) with either 100 μl of PBS, or 100 μl of 3.50×10^−5 M peptide solution (oxidized mTβ4 (“mTβ4-so”), or oxidized mLTβ4 (“mLTβ4-so”) [n=10 per group]). 30 minutes later, mice were injected intradermally with 40 μl of either PBS or 8.75×10^−5 M solution of the appropriate peptide in both ears. One minute later, 40 nmol TPA (in 10 μl acetone) was applied to the anterior side of each ear. 6 h. and 24 h. after the topical application of TPA, the ears were re-measured, and the increases in ear thickness between baseline and 6 h. and between baseline and 24 h. calculated. For each mouse, increases in right and left ear thickness were averaged.
Statistics. Groups were compared for differences in the meaning using a one-tailed Student's t test; p<0.05 was considered statistically significant.

[4] = system: human umbilical vein endothelial cells (HUVEC); test: Endothelial scratch wound assay; type: cell-based; settings: for % Closure (+/− SE %): 2.0×10^-7 M peptide, ECGS 200 μg
Source text: The endothelial “scratch wound assay” was utilised to test the effects of mUTβ4 and mLTβ4 on the migration of endothelial cells in vitro, as described in […] et al. (1997) Thymosin beta 4 accelerates wound healing. J Invest Dermatol. 1999 September; 113(3):364-8 and Young et al., (1999) Thymosin b 4 sulfoxide is an anti-inflammatory agent generated by monocytes in the presence of glucocorticoids. Nature Medicine. 5:1424-1427. HUVECs were obtained from the Endothelial Cell Culture Core Laboratory of the Yale Skin Diseases Research Core Center (Dr. M. Kluger). Passage 3 was used, and plated at a density of 9.5×10^4 cells per well. Cells were grown to 90% confluence in 24 well plates (Corning/Costar), in M-199 media supplemented with 20% FBS, antibiotics, and endothelial cell growth supplement (ECGS). A scratch was made along the diameter of each well with a sterile blue 1 ml pipette tip (Falcon). Cells were then rinsed in MEM buffer. Thymosin peptide was added to the cells in media lacking ECGS but containing 10 mM thymidine to inhibit cell proliferation. In the experimental groups, HUVECs were given 2.0×10^-7 M peptide solution of mUTb4, or in LTb4. Control groups consisted of saline (negative control) and 200 mg of ECGS (positive control). The plates were incubated at 37° C., fixed in 2% paraformaldehyde, and stained with crystal violet at time points 9 h. and 24 h. The scratch width was measured using a microscope with a 4× objective lens connected to a digital camera and then analyzed using Scion Image 1.62 software. The percent closure of the 9 h. and 24 h. measurements was calculated by dividing by the original wound width at time zero in square pixels. For each group, the mean percent closure was calculated, based on 4 images per well, 4 wells per group.

N-LLPATMSDKPDMAEIEKFDKSKLKKTE-TQEKNPLPSKETIEQEKQAGES-C (SEQ ID NO:8) (LLPATMSDKPDMAEIEKFDKSKLKKTETQEKNPLPSKETIEQEKQAGES; listed as Homo sapiens) [LTβ4, lymphoid thymosin-β4 polypeptide, un-methionated form, chemically synthesised]
suppression of footpad inflammation relative to PBS ([1]; 6 h): 21% | footpad swelling compared with mice receiving PBS or UTβ4 (FIG. 2A) ([1]; 24 h): significantly reduced footpad swelling | suppression of footpad inflammation relative to PBS ([1]; 24 h): 58% | footpad thickness ([1]; 24 h, unit not given): 0.22±0.03 | suppression of footpad inflammation relative to PBS ([1]; 48 h): 42% | Footpad Thickness (+/− SE) ([1]; Un-Methionated Thymosin Experiment (A), forty-eight hours after λ-carrageenan): 0.34 ± 0.04 mm | Footpad Thickness (+/− SE) ([1]; Un-Methionated Thymosin Experiment (A), six hours after λ-carrageenan, increase over baseline): 0.47 ± 0.04 mm | Footpad Thickness (+/− SE) ([1]; Un-Methionated Thymosin Experiment (A), twenty-four hours after λ-carrageenan): 0.22 ± 0.03 mm | suppression of ACD ear swelling response relative to PBS ([2]; 6 h): 17% | ear swelling response compared to mice receiving PBS or UTβ4 (FIG. 4A) ([2]; 6 h, 24 h and 72 h after challenge): significant reduction in ear swelling response | suppression of ACD ear swelling response relative to PBS ([2]; 24 h): 21% | suppression of ACD ear swelling response relative to PBS ([2]; 72 h): 24% | DNFB Ear Thickness (+/− SE) ([2]; Un-Methionated Thymosin Experiment, forty-eight hours after challenge): 15.45 ± 0.91 .01 mm | DNFB Ear Thickness (+/− SE) ([2]; Un-Methionated Thymosin Experiment, six hours after challenge): 7.83 ± 0.61 .01 mm | DNFB Ear Thickness (+/− SE) ([2]; Un-Methionated Thymosin Experiment, twenty-four hours after challenge): 18.98 ± 0.74 .01 mm | thinner ears than uTβ4-so treated mice ([2]; seventy-two hours): 22% | ear thickness ([2]; seventy-two hours): 15.45±0.91 | thinner ears than uTβ4-so treated mice ([2]; six hours): 21% | ear thickness ([2]; six hours): 7.83±0.61 | thinner ears than uTβ4-so treated mice ([2]; twenty-four hours): 16% | ear thickness ([2]; twenty-four hours): 18.98±0.74

N-MLLPATMSDKPDMAEIEIFDKSKILITE-TQEKNPLPSKETIEQEKQAGES-C (SEQ ID NO:9) (MLLPATMSDKPDMAEIEKFDKSKLKKTETQEKNPLPSKETIEQEKQAGES; listed as Homo sapiens) [mLTβ4, N-terminal methionated lymphoid thymosin-β4, chemically synthesised]
suppression of footpad inflammation relative to PBS ([1]; 6 h): 50% | footpad swelling compared with mice receiving PBS or mUTβ4 (FIG. 2B) ([1]; 6 h and 24 h): significantly reduced footpad swelling | suppression of footpad inflammation relative to PBS ([1]; 24 h): 59% | suppression of footpad inflammation relative to PBS ([1]; 48 h): 34% | ear swelling [3]: 18.00±1.58 | suppression of inflammation relative to PBS-treated controls ([3]; 6 h post-application of TPA): 41% | suppression of inflammation relative to PBS-treated controls ([3]; 24 h post-application of TPA): 24% | suppression of TPA-induced ear swelling (FIG. 3) ([3]; vs PBS at 6 h and 24 h, vs mUTβ4 at 6 h): significantly more than PBS | suppression of ACD ear swelling response relative to PBS ([2]; 6 h): 37% | suppression of ACD ear swelling response relative to PBS ([2]; 24 h): 27% | ear swelling response relative to mice that received PBS or mUTβ4 (FIG. 4B) ([2]; 24 h and 72 h): significant reduction in ear swelling response | suppression of ACD ear swelling response relative to PBS ([2]; 72 h): 42% | % Closure (+/− SE %) ([4]; nine hours): 27.2 ± 1.6% | % Closure (+/− SE %) ([4]; nine hours, listed as mLβ): 27.2% | more closure than mTβ4-so ([4]; twenty four hours): 15.3% | % Closure (+/− SE %) ([4]; twenty-four hours): 37.3 ± 4.4% | % Closure (+/− SE %) ([4]; twenty-four hours, listed as mLβ): 37.3% | effect on migration of HUVEC to close an artificial wound (FIG. 5) ([4]; vs PBS at 9 h and 24 h, vs mUTβ4 at 24 h): significantly greater than PBS

N-MSDKPDMAEIEKFDKSKLKKTETQEINPL-PSIETIEQEKQAGES-C (SEQ ID NO:2) [mUTβ4]
suppression of footpad inflammation relative to PBS ([1]; 6 h): 29% | suppression of footpad inflammation relative to PBS ([1]; 24 h): 45% | suppression of footpad inflammation relative to PBS ([1]; 48 h): 38% | Footpad Thickness (+/− SE) ([1]; Methionated Thymosin Experiment (B), forty-eight hours after λ-carrageenan, listed as mTβ4-so): 0.51 ± 0.02 mm and 0.55 ± 0.03 mm | Footpad Thickness (+/− SE) ([1]; Methionated Thymosin Experiment (B), six hours after λ-carrageenan, listed as mTβ4-so): 0.36 ± 0.06 mm and 0.51 ± 0.05 mm | Footpad Thickness (+/− SE) ([1]; Methionated Thymosin Experiment (B), twenty-four hours after λ-carrageenan, listed as mTβ4-so): 0.38 ± 0.01 mm and 0.28 ± 0.04 mm | ear swelling [3]: 24.10±1.83 | suppression of inflammation relative to PBS-treated controls ([3]; 6 h post-application of TPA): 21% | suppression of inflammation relative to PBS-treated controls ([3]; 24 h post-application of TPA): 13% | TPA Ear Thickness (+/− SE) ([3]; six hours after TPA, listed as mTβ4): 24.10 ± 1.83 mm and 18.00 ± 1.58 mm | TPA Ear Thickness (+/− SE) ([3]; twenty-four hours after TPA, listed as mTβ4-so): 19.00 ± 1.83 mm and 16.75 ± 1.79 mm | suppression of ACD ear swelling response relative to PBS ([2]; 72 h): 29% | DNFB Ear Thickness (+/− SE) ([2]; Methionated Thymosin Experiment, forty-eight hours after challenge, listed as mTβ4-so): 18.39 ± 1.67 mm and 15.11 ± 0.37 mm | DNFB Ear Thickness (+/− SE) ([2]; Methionated Thymosin Experiment, six hours after challenge, listed as mTβ4-so): 5.18 ± 0.78 mm and 4.39 ± 1.08 mm | DNFB Ear Thickness (+/− SE) ([2]; Methionated Thymosin Experiment, twenty-four hours after challenge, listed as mTβ4-so): 20.25 ± 1.54 mm and 16.75 ± 0.48 mm | % Closure (+/− SE %) ([4]; nine hours, listed as mTβ4): 24% and 24.0 ± 1.1% | % Closure (+/− SE %) ([4]; twenty-four hours, listed as mTβ4): 21% and 21.0 ± 1.5% | % Closure (+/− SE %) ([4]; twenty-four hours, listed as mTβ4-so): 21.0±1.5%
